Measured values from patent US20220267352A1, “RAPAMYCIN ANALOGS AND USES THEREOF” (Anakuria Therapeutics, Inc., priority 2021, published 2022).

Experiments:
Assay type in all cases: cell-based
[1] = system: p-p70 S6 Kinase (Thr389) in MCF-7 cells; test: AlphaLISA Ultra pS6K1 assay; conditions: Homo sapiens, 1.5 h; MCF7 cells, 90 min
Outline: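 MCF-7 cells seeded 20–24 h, given fresh medium 2 h, then treated with compounds 90 min (0.5% DMSO final). Cells lysed, lysates frozen at −80 °C, then Thr389-phosphorylated S6K1 detected by AlphaLISA Ultra with acceptor beads 2 h, then donor beads 2 h.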

[2] = system: p-Akt 1/2/3 (Ser473) in MCF-7 cells; test: AlphaLISA Ultra pAKT assay; conditions: Homo sapiens, 1.5 h; MCF7 cells, 90 min
Outline: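 MCF-7 cells (16,000˜20,000 per well in 36 μL medium) were seeded in Corning 3701 plates for 20˜24 hour, refreshed with new medium for 90 minutes, then given 12 μL of 4× compound (0.5% final DMSO). Cells were lysed with 2× lysis buffer, and lysate was analyzed by AlphaLISA Ultra pAKT using acceptor and donor beads, read on an EnSpire reader.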

mTORC1 over mTORC2 = mTORC1 over mTORC2 selectivity by comparing pS6K1 and pAKT IC50; conditions: by comparing pS6K1 and pAKT IC50, 90 min
Outline: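 MCF-7 cells were treated with compounds (0.5% final DMSO) for 90 minutes in one protocol and 2 hours in the other, then lysed. Phospho-signal in lysates was read by bead-based donor/acceptor proximity assay. pS6K1 and pAKT IC50 values were compared to judge mTORC1 over mTORC2 selectivity, at 90 min and at 24 hrs.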

| IC50 [1] | IC50 [2] | Compound | mTORC1 selective @ 90 min (mTORC1 over mTORC2) |
| --- | --- | --- | --- |
| 10 to 100 nM | ≥ 1000 nM | CO[C@@H]1C[C@H](C[C@@H](C)[C@@H]2CC(=O)[C@H](C)/C=C(\C)[C@@H](O)[C@@H](OC)C(=O)[C@H](C)C[C@H](C)/C=C/C=C/C=C(\C)C(OCC3COCCO3)C[C@@H]3CC[C@@H](C)[C@@](O)(O3)C(=O)C(=O)N3CCCC[C@H]3C(=O)O2)CC[C@H]1OC(F)F (stereo partly drawn) [I-6, (24E,26E,28E,29E,32R,33S,34R,35R,37S,39S,42S,44R,45R,55R)-42-[(1R)-2-[(1S,3R,4R)-4-(difluoromethoxy)-3-methoxy-cyclohexyl]-1-methyl-ethyl]-41-(1,4-dioxan-2-ylmethoxy)-44,55-dihydroxy-45-methoxy-32,33,34,35,46,47-hexamethyl-66,67-dioxa-56-azatricyclohexatriaconta-24,26,28(46),29(47)-tetraene-48,49,50,51,52-pentone] | Yes |
| 100 to 1000 nM | ≥ 1000 nM | CO[C@@H]1/C(C)=C/[C@@H](C)C(=O)C[C@@H]([C@H](C)C[C@@H]2CC[C@@H](OC)[C@H](OC)C2)OC(=O)[C@@H]2CCCCN2C(=O)C(=O)[C@]2(O)O[C@@H](CC[C@H]2C)CC(OCCOCCN)/C(C)=C/C=C/C=C/[C@@H](C)C[C@@H](C)C(=O)[C@@H]1OC (stereo partly drawn) [I-22] | Yes |
| 10 to 100 nM | ≥ 1000 nM | CO[C@@H]1C[C@H](C[C@@H](C)[C@@H]2CC(=O)[C@H](C)/C=C(\C)[C@@H](O)[C@@H](OC)C(=O)[C@H](C)C[C@H](C)/C=C/C=C/C=C(\C)[C@H](OCCOC3COC3)C[C@@H]3CC[C@@H](C)[C@@](O)(O3)C(=O)C(=O)N3CCCC[C@H]3C(=O)O2)CC[C@H]1OP(C)(C)=O [I-77, (1R,9S,12S,15R,16E,18R,19R,21R,23S,24E,26E,28E,30R,32S,35R)-12-[(1R)-2-[(1S,3R,4R)-4-dimethylphosphoryloxy-3-methoxy-cyclohexyl]-1-methyl-ethyl]-1,18-dihydroxy-19-methoxy-15,17,21,23,29,35-hexamethyl-30-[2-(oxetan-3-yloxy)ethoxy]-11,36-dioxa-4-azatricyclo[30.3.1.0^4,9]hexatriaconta-16,24,26,28-tetraene-2,3,10,14,20-pentone] | Yes |
| < 1 nM | ≥ 1000 nM | CO[C@@H]1C[C@H](C[C@@H](C)[C@@H]2CC(=O)[C@H](C)/C=C(\C)[C@@H](O)[C@@H](OC)C(=O)[C@H](C)C[C@H](C)/C=C/C=C/C=C(\C)[C@@H](OCCOC3COC3)C[C@@H]3CC[C@@H](C)[C@@](O)(O3)C(=O)C(=O)N3CCCC[C@H]3C(=O)O2)CC[C@H]1OP(C)(C)=O [I-78, (1R,9S,12S,15R,16E,18R,19R,21R,23S,24E,26E,28E,30S,32S,35R)-12-[(1R)-2-[(1S,3R,4R)-4-dimethylphosphoryloxy-3-methoxy-cyclohexyl]-1-methyl-ethyl]-1,18-dihydroxy-19-methoxy-15,17,21,23,29,35-hexamethyl-30-[2-(oxetan-3-yloxy)ethoxy]-11,36-dioxa-4-azatricyclo[30.3.1.0^4,9]hexatriaconta-16,24,26,28-tetraene-2,3,10,14,20-pentone] | Yes |
| 100 to 1000 nM | ≥ 1000 nM | CO[C@@H]1/C(C)=C/[C@@H](C)C(=O)C[C@@H]([C@H](C)C[C@@H]2CC[C@@H](OC)[C@H](OC)C2)OC(=O)[C@@H]2CCCCN2C(=O)C(=O)[C@]2(O)O[C@@H](CC[C@H]2C)C[C@@H](OCC2COCCO2)/C(C)=C/C=C/C=C/[C@@H](C)C[C@@H](C)C(=O)[C@@H]1OC (stereo partly drawn) [I-39, (26E,28E,30E,31E,34R,35S,36R,37R,39S,41S,43R,44S,46R,47R,56R)-44-[(1R)-2-[(1S,3R,4R)-3,4-dimethoxycyclohexyl]-1-methyl-ethyl]-43-(1,4-dioxan-2-ylmethoxy)-56-hydroxy-46,47-dimethoxy-34,35,36,37,48,49-hexamethyl-66,67-dioxa-57-azatricyclohexatriaconta-26,28,30(48),31(49)-tetraene-50,51,52,53,54-pentone] | Yes |
| < 1 nM | ≥ 1000 nM | COCCO[C@@H]1CC[C@@H](C[C@@H](C)[C@@H]2CC(=O)[C@H](C)/C=C(\C)[C@@H](O)[C@@H](OC)C(=O)[C@H](C)C[C@H](C)/C=C/C=C/C=C(\C)C(OC[C@@H]3COCCO3)C[C@@H]3CC[C@@H](C)[C@@](O)(O3)C(=O)C(=O)N3CCCC[C@H]3C(=O)O2)C[C@H]1OC (stereo partly drawn) [I-76, (1R,9S,12S,15R,16E,18R,19R,21R,23S,24E,26E,28E,32S,35R)-30-[[(2S)-1,4-dioxan-2-yl]methoxy]-1,18-dihydroxy-19-methoxy-12-[(1R)-2-[(1S,3R,4R)-3-methoxy-4-(2-methoxyethoxy)cyclohexyl]-1-methyl-ethyl]-15,17,21,23,29,35-hexamethyl-11,36-dioxa-4-azatricyclo[30.3.1.0^4,9]hexatriaconta-16,24,26,28-tetraene-2,3,10,14,20-pentone] | Yes |
| 1 to 10 nM | ≥ 1000 nM | CO[C@@H]1C[C@H](C[C@@H](C)[C@@H]2CC(=O)[C@H](C)/C=C(\C)[C@@H](O)[C@@H](OC)C(=O)[C@H](C)C[C@H](C)/C=C/C=C/C=C(\C)[C@H](OCCOC3COC3)C[C@@H]3CC[C@@H](C)[C@@](O)(O3)C(=O)C(=O)N3CCCC[C@H]3C(=O)O2)CC[C@H]1OC(=O)N(C)CCN1CCOCC1 [I-17, [(43S,45R,47R)-4-[(2R)-2-[(28E,30E,32E,33E,39R,40S,41R,42R,44S,46S,48R,49S,51R,52R,62R)-51,62-dihydroxy-52-methoxy-39,40,41,42,53,54-hexamethyl-48-[2-(oxetan-3-yloxy)ethoxy]-55,56,57,58,59-pentaoxo-76,77-dioxa-64-azatricyclohexatriaconta-28,30,32(53),33(54)-tetraen-49-yl]propyl]-47-methoxy-45-cyclohexyl] N-methyl-N-(2-morpholinoethyl)carbamate] | Yes |
| 1 to 10 nM | ≥ 1000 nM | CO[C@@H]1C[C@H](C[C@@H](C)[C@@H]2CC(=O)[C@H](C)/C=C(\C)[C@@H](O)[C@@H](OC)C(=O)[C@H](C)C[C@H](C)/C=C/C=C/C=C(\C)C(OCCOC3COC3)C[C@@H]3CC[C@@H](C)[C@@](O)(O3)C(=O)C(=O)N3CCCC[C@H]3C(=O)O2)CC[C@H]1OCCCN1CCN(C)CC1 (stereo partly drawn) [I-15, (28E,30E,32E,33E,40R,41S,42R,43R,45S,47S,50S,52R,53R,62R)-52,62-dihydroxy-53-methoxy-50-[(1R)-2-[(1S,3R,4R)-3-methoxy-4-[3-(4-methylpiperazin-1-yl)propoxy]cyclohexyl]-1-methyl-ethyl]-40,41,42,43,54,55-hexamethyl-49-[2-(oxetan-3-yloxy)ethoxy]-74,75-dioxa-65-azatricyclohexatriaconta-28,30,32(54),33(55)-tetraene-56,57,58,59,60-pentone] | Yes |
| 10 to 100 nM | ≥ 1000 nM | CNCCOCCOC1C[C@@H]2CC[C@@H](C)[C@@](O)(O2)C(=O)C(=O)N2CCCC[C@H]2C(=O)O[C@H]([C@H](C)C[C@@H]2CC[C@@H](OC)[C@H](OC)C2)CC(=O)[C@H](C)/C=C(\C)[C@@H](OC)[C@@H](OC)C(=O)[C@H](C)C[C@H](C)/C=C/C=C/C=C/1C (stereo partly drawn) [I-90, (24E,26E,28E,29E,35R,36S,37R,38R,40S,42S,45S,46R,47R,56R)-45-[(1R)-2-[(1S,3R,4R)-3,4-dimethoxycyclohexyl]-1-methyl-ethyl]-56-hydroxy-46,47-dimethoxy-35,36,37,38,48,49-hexamethyl-44-[2-[2-(methylamino)ethoxy]ethoxy]-65,66-dioxa-58-azatricyclohexatriaconta-24,26,28(48),29(49)-tetraene-50,51,52,53,54-pentone] | Yes |
| < 1 nM | ≥ 1000 nM | CO[C@@H]1C[C@H](C[C@@H](C)[C@@H]2CC(=O)[C@H](C)/C=C(\C)[C@@H](O)[C@@H](OC)C(=O)[C@H](C)C[C@H](C)/C=C/C=C/C=C(\C)C(OCCOC3CCOCC3)C[C@@H]3CC[C@@H](C)[C@@](O)(O3)C(=O)C(=O)N3CCCC[C@H]3C(=O)O2)CC[C@H]1OP(C)(C)=O (stereo partly drawn) [I-86, (1R,9S,12S,15R,16E,18R,19R,21R,23S,24E,26E,28E,32S,35R)-12-[(1R)-2-[(1S,3R,4R)-4-dimethylphosphoryloxy-3-methoxy-cyclohexyl]-1-methyl-ethyl]-1,18-dihydroxy-19-methoxy-15,17,21,23,29,35-hexamethyl-30-(2-tetrahydropyran-4-yloxyethoxy)-11,36-dioxa-4-azatricyclo[30.3.1.0^4,9]hexatriaconta-16,24,26,28-tetraene-2,3,10,14,20-pentone] | Yes |
| 1 to 10 nM | ≥ 1000 nM | CO[C@@H]1C[C@H](C[C@@H](C)[C@@H]2CC(=O)[C@H](C)/C=C(\C)[C@@H](O)[C@@H](OC)C(=O)[C@H](C)C[C@H](C)/C=C/C=C/C=C(\C)[C@@H](OCC3COCCO3)C[C@@H]3CC[C@@H](C)[C@@](O)(O3)C(=O)C(=O)N3CCCC[C@H]3C(=O)O2)CC[C@H]1OC(=O)NCCN1CCOCC1 (stereo partly drawn) [I-103, [(42S,44R,46R)-4-[(2R)-2-[(28E,30E,32E,33E,38R,39S,40R,41R,43S,45S,47S,48S,50R,51R,61R)-47-(1,4-dioxan-2-ylmethoxy)-50,61-dihydroxy-51-methoxy-38,39,40,41,52,53-hexamethyl-54,55,56,57,58-pentaoxo-76,77-dioxa-64-azatricyclohexatriaconta-28,30,32(52),33(53)-tetraen-48-yl]propyl]-46-methoxy-44-cyclohexyl] N-(2-morpholinoethyl)carbamate] | Yes |
